In patent publication US20110098296A1, “Thiazole And Oxazole Kinase Inhibitors” (priority 2007, published 2011):
pIC50: −log10 of the molar value.

Columns and labels:
Colo205 tumor cells = assay: Method A: Methylene Blue Growth Inhibition Assay, Colo205; type: cell-based; conditions: Homo sapiens, COLO 205, 72 h, 3 days
Experimental: (§1) Human breast (BT474) and head and neck (HN5) tumor cells were cultured in low glucose DMEM (Life Technologies 12320-032) containing 10% fetal bovine serum (FBS). Human colon tumor cells (Colo205) were cultured in DMEM (Invitrogen, 10564) containing 10% FBS. The SV40 transformed human mammary epithelial cell line HB4a was transfected with either human H-ras cDNA (HB4a r4.2) or the human c-ErbB2 cDNA (HB4a c5.2). The HB4a clones were cultured in RPMI containing 10% FBS, insulin (5 g/mL), hydrocortisone (5 g/mL), supplemented with the selection agent hygromycin B (50 g/mL). All lines were grown in a humidified incubator at 37° C. in 95% air, 5% CO2. Cells were harvested using trypsin/EDTA, counted using a haemocytometer, and plated in 100 μL of the appropriate media, at the following densities, in a 96-well tissue culture plate (Falcon 3075): BT474 10,000 cells/well, HN5 3,000 cells/well. The next day, compounds were diluted in DMEM containing […] gentamicin, at twice the final required concentration, from 10 mM stock solutions in DMSO. 100 μl/well of these dilutions were added to the 100 μL of media currently on the cell plates. Medium containing 0.6% DMSO was added to control wells. Compounds diluted in DMEM were added to all cell lines. The final concentration of DMSO in all wells was 0.3%. Cells were returned to the incubator (37° C., […]) for 3 days. Medium was then removed by aspiration. Cell biomass was estimated by staining cells with 90 μL/well methylene blue (Sigma M9140, 0.5% in 1:1 EtOH:H2O), and incubation at room temperature for at least 30 minutes. Stain was removed, and the plates rinsed by immersion in deionized H2O and air-dried. To release stain from the cells 100 μL of solubilization solution were added (1% N-lauroyl sarcosine, sodium salt, Sigma L5125, in PBS), and plates were shaken gently for about 30 minutes. Optical density at 620 nm was measured on a microplate reader. Percent inhibition of cell growth was calculated relative to vehicle-treated control wells. Concentration of compound that inhibits 50% of control cell growth (IC50) was interpolated using nonlinear regression (Levenberg-Marquardt) and the equation,
(§2) y=Vmax*(1−(x/(K+x)))+Y2, where “K” was equal to the IC50.

HN5 tumor cells = assay: Method A: Methylene Blue Growth Inhibition Assay, HN5; type: cell-based; conditions: Homo sapiens, 72 h, 3 days
Experimental: as §1, §2

## COc1cc(Nc2nccc(-c3sc(N)nc3-c3cccc(NC(=O)c4c(F)cccc4F)c3)n2)cc(OC)c1OC [Example 16, N-[3-(2-Amino-5-{2-[(3,4,5-trimethoxyphenyl)amino]pyrimidiN-4-yl}-1,3-thiazol-4-yl)phenyl]-2,6-difluorobenzamide]
Colo205 tumor cells
  pIC50: > 7.00

## COc1ccc(Nc2nccc(-c3sc(N)nc3-c3cccc(NC(=O)c4c(F)cccc4F)c3)n2)cc1N1CCNCC1 [Example 18, N-[3-(2-Amino-5-{2-[(4-methoxy-3-piperaziN-1-ylphenyl)amino]pyrimidiN-4-yl}-1,3-thiazol-4-yl)phenyl]-2,6-difluorobenzamide]
HN5 tumor cells
  pIC50: > 7.00
